# What was measured:
# [1] = test system: S. epidermidis 16-2; assay: Antibacterial activity in vitro (agar dilution); format: cell-based; details: Staphylococcus epidermidis, 162, agar dilution (MuellerHinton agar), inoculum 10^4 CFU/spot, read-out: minimum inhibitory concentration (MIC)
# [2] = target: T1, DNA gyrase (Escherichia coli, UniProt P0AES4+P0AES6); assay: Inhibition of DNA gyrase activity (DNA gyrase supercoiling assay, relaxed pUC18 plasmid as substrate); format: biochemical, E. coli H560
# T1 construct: supercoiling of relaxed pUC18
# T1 sequence (P0AES4 whole entry, one chain of several): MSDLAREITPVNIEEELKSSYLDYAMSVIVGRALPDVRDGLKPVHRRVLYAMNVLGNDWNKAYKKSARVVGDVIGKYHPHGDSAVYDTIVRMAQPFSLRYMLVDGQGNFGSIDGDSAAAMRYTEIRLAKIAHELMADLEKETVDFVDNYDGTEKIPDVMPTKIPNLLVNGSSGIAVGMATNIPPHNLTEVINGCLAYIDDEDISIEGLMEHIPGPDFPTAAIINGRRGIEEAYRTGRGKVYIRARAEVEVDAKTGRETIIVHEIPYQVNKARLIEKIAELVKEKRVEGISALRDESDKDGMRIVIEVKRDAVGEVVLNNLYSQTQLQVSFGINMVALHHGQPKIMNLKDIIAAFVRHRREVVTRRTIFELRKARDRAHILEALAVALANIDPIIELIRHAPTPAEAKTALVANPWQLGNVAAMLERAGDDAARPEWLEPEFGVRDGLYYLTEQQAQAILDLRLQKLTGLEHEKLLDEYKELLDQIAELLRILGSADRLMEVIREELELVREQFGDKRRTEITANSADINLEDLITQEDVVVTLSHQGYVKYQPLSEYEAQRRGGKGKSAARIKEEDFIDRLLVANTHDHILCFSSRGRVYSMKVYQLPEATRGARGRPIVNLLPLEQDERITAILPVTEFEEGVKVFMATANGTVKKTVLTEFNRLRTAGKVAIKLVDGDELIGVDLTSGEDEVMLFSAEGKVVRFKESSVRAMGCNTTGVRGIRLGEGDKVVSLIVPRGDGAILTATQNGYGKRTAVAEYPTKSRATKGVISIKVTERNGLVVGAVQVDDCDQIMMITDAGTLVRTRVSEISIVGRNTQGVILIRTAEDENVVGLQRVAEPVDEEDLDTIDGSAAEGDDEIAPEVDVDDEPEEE
# Protocol: A. Inhibition of DNA gyrase activity
# The inhibition of DNA gyrase activity was measured using a DNA gyrase supercoiling assay according to R. Otter & N. Cozzarelli: Methods in Enzymology, Vol. 100, pp 171-180 (1983). DNA gyrase was isolated from E. coli H560, and relaxed pUC18 plasmid was used as substrate. The activities as regards inhibition of DNA gyrase activity, expressed as maximum non-effective concentration of the test compound (MNC in μg/ml) are compiled in the following Table 1: […]
# [3] = test system: S. aureus Smith; assay: Antibacterial activity in vitro (agar dilution); format: cell-based; details: Staphylococcus aureus, agar dilution (MuellerHinton agar), inoculum 10^4 CFU/spot, read-out: minimum inhibitory concentration (MIC)
# [4] = test system: P. aeruginosa 799/61; assay: Antibacterial activity in vitro (agar dilution); format: cell-based; details: Pseudomonas aeruginosa, agar dilution (MuellerHinton agar), inoculum 10^4 CFU/spot, read-out: minimum inhibitory concentration (MIC)
# [5] = test system: S. faecalis 6; assay: Antibacterial activity in vitro (agar dilution); format: cell-based; details: Enterococcus faecalis, agar dilution (MuellerHinton agar), inoculum 10^4 CFU/spot, read-out: minimum inhibitory concentration (MIC)
# [6] = test system: S. aureus 25923; assay: Antibacterial activity in vitro (agar dilution); format: cell-based; details: Staphylococcus aureus, agar dilution (MuellerHinton agar), inoculum 10^4 CFU/spot, read-out: minimum inhibitory concentration (MIC)
# [7] = test system: E. coli B; assay: Antibacterial activity in vitro (agar dilution); format: cell-based; details: Escherichia coli, agar dilution (MuellerHinton agar), inoculum 10^4 CFU/spot, read-out: minimum inhibitory concentration (MIC)
# [8] = test system: S. pyogenes 15; assay: Antibacterial activity in vitro (agar dilution); format: cell-based; details: Streptococcus pyogenes, agar dilution (MuellerHinton agar), inoculum 10^4 CFU/spot, read-out: minimum inhibitory concentration (MIC)
compound,measurement,setting,value
"C#CCNC(=O)[C@@H]1CSCc2c(O)cc(OC)c(C)c2C(=O)OCCCCC(=S)N1 [Example 27, (R)-16-hydroxy-14-methoxy-13-methyl-12-oxo-6-thioxo-1,3,4,5,6,7,8,9,10,12-decahydro-11,2,5benzoxathiaazacyclotetradecine-4-carboxylic acid prop-2-ynylamide]",MIC,[1],0.12 µg/mL
same,maximum non-effective concentration of the test compound (MNC),[2],0.01 µg/mL
same,MIC,[3],0.5 µg/mL
same,MIC,[4],2 µg/mL
same,MIC,[5],0.5 µg/mL
same,MIC,[6],1 µg/mL
same,MIC,[7],64 µg/mL
same,MIC,[8],4 µg/mL

# From patent US5594135A, “Tricyclic DNA gyrase inhibitors” (Hoffmann-La Roche Inc., priority 1994, dated 1997)
